For data set [1], the system named is human embryonic lung (HEL) fibroblasts. Nature of the data set: Cytotoxicity in HEL cell cultures (alteration of cell morphology). The conditions noted are these: microscopically detectable alteration of normal cell morphology.
For data set [2], the target named is T1, Human TK-1 (Homo sapiens, UniProt P04183).
T1 sequence (P04183 1-234): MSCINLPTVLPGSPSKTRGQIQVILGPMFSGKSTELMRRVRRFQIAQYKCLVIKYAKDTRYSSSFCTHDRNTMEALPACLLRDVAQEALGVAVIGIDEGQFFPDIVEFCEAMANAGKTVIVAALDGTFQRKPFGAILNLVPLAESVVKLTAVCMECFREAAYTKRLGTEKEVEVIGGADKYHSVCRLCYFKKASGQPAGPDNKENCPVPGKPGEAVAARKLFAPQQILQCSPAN
Nature of the data set: Thymidine kinase assay using [CH3-3H]dThd as natural substrate, TK-1. It is filed as biochemical. As to conditions: for IC50: 50% inhibitory concentration for TK-catalyzed conversion of [3H]dThd to its 5'-monophosphate, 1 µM dThd, 37 °C, 30 min. The protocol:
(§1) Thymidine Kinase Assay Using [CH3-^3H]dThd as the Natural Substrate. The activity of recombinant thymidine kinase 1 (TK-1), TK-2, and herpes simplex virus-1 (HSV-1) TK, and the 50% inhibitory concentration of the test compounds, were assayed in a 50-μL reaction mixture containing 50 mM Tris/HCl, pH 8.0, 2.5 mM MgCl2, 10 mM dithiothreitol, 0.5 mM CHAPS, 3 mg/mL bovine serum albumin, 2.5 mM ATP, 1 µM [methyl-^3H]dThd, and enzyme. The samples were incubated at 37 °C for 30 min in the presence or absence of different concentrations (five-fold dilutions) of the test compounds. At this time, the enzyme reaction still proceeded linearly. Aliquots of 45 µL of the reaction mixtures were spotted on Whatman DE-81 filter paper disks (Whatman, Clifton, NJ, USA). The filters were washed three times for 5 min each in 1 mM ammonium formate, once for 1 min in water, and once for 5 min in ethanol. The radioactivity was determined by scintillation counting.

The target of data set [3] is T2, Human TK-2 (Homo sapiens, UniProt O00142).
T2 sequence (O00142 34-265): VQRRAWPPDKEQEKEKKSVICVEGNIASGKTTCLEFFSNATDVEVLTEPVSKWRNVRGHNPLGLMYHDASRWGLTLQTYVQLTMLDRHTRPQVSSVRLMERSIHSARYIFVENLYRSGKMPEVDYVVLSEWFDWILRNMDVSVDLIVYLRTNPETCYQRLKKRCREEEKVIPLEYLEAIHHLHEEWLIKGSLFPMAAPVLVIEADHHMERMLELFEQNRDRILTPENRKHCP
Nature of the data set: Thymidine kinase assay using [CH3-3H]dThd as natural substrate, TK-2. It is filed as biochemical. The conditions noted are these: for IC50: 50% inhibitory concentration for TK-catalyzed conversion of [3H]dThd to its 5'-monophosphate, 1 µM dThd, 37 °C, 30 min. How it is done:
as §1

The target of data set [4] is T3, HSV-1 TK (Human herpesvirus 1, UniProt P0DTH5). Nature of the data set: Thymidine kinase assay using [CH3-3H]dThd as natural substrate, HSV-1 TK. It is filed as biochemical. How it is done:
as §1

For data set [5], the target named is T3, HSV-1 TK. Nature of the data set: Substrate activity for HSV-1 TK by HPLC technology. It is filed as biochemical, herpes simplex virus-1. From the text: Therefore, to evaluate this last point, we performed further studies to test the suitability of these compounds to pass the usual rate-limiting first phosphorylation step. Thus, the affinity of the synthesized compounds 2a–e for the cellular and HSV-1 thymidine kinases (TKs) were investigated (Table 2). […] It was expected that this cytosine analogue might show affinity for HSV-1 TK, as the natural nucleoside (2-deoxycytidine, 2-dC) is known to be recognized by several kinases, including HSV-1 TK; however, that was apparently not the case. […] Therefore, because some of the synthesized analogues were recognized by the virus-encoded nucleoside kinase, the lack of antiherpetic activity could be attributed to the lack of further conversion of the 5′-monophosphate derivative to the 5′-triphosphate or to a low affinity, if any, of the 5′-triphosphate metabolite to the virus-encoded DNA polymerase.

Entries after “also recorded” stand apart in the source; their conditions may differ.

T3 sequence (P0DTH5 whole entry): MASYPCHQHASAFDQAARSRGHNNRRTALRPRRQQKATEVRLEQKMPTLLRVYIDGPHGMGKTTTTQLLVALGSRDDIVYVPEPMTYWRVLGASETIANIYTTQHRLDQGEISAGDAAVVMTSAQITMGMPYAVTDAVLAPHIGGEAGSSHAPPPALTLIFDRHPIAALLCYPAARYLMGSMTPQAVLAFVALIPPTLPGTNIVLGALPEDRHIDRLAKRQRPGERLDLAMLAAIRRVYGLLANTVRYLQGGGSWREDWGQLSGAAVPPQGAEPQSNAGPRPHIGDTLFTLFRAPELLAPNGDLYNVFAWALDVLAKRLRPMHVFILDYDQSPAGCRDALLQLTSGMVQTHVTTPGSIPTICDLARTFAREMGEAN

For the molecule `Nc1nc2c(ncn2COCCO)c(=O)[nH]1` [Acyclovir], in data set [1], the “Cytotoxicity, minimum cytotoxic concentration” value is recorded as above 250 µM.

For the molecule `O=c1[nH]c(=O)n([C@H]2C[C@H](O)[C@@H](CO)O2)cc1/C=C/Br` [Brivudin], the “Cytotoxicity, minimum cytotoxic concentration” value in data set [1] is above 250 µM.

With `Nc1ccn(C[C@@H](CO)OCP(=O)(O)O)c(=O)n1` [Cidofovir], the “Cytotoxicity, minimum cytotoxic concentration” value in data set [1] is reported as above 250 µM.

The term IC50 denotes the concentration that inhibits the measured activity by half. Consider `Nc1ncnc2c1ncn2[C@H]1CC[C@@H](CO)[C@@H]2C[C@@H]21` [Compound 2a], for which the IC50 in data set [2] was above 771 µM; in data set [3] it was above 771 µM; in data set [4] it was 578 µM.

On to `Nc1nc2c(ncn2[C@H]2CC[C@@H](CO)[C@@H]3C[C@@H]32)c(=O)[nH]1` [Compound 2b], for which, in data set [2], the “Affinity for human TK-1 / human cellular kinases (in words)” value is “not for human TK-1” and the half-maximal inhibitory concentration (IC50) was above 726 µM. Further, in data set [3], the “Affinity for mitochondrial TK-2 (in words)” value is recorded as “some marginal affinity” and the 50% inhibitory concentration (IC50) was 338 µM. Moreover, the “Substrate activity for HSV-1 TK, conversion to the monophosphate metabolite” value in data set [5] is given as “good substrate”. In data set [4], the “Affinity for HSV-1 TK (in words)” value is “excellent affinity; also recorded: display affinity” and the concentration for half-maximal inhibition (IC50) is 5.81 µM.

For the molecule `O=c1ccn([C@H]2CC[C@@H](CO)[C@@H]3C[C@@H]32)c(=O)[nH]1` [Compound 2c], the IC50 in data set [2], in data set [3] and in data set [4] was above 846 µM throughout.

On to `Cc1cn([C@H]2CC[C@@H](CO)[C@@H]3C[C@@H]32)c(=O)[nH]c1=O` [Compound 2d], for which, in data set [2], the “Affinity for human TK-1 / human cellular kinases (in words)” value was “not for human TK-1” and the IC50 is above 799 µM. The molecule also displayed a half-maximal inhibitory concentration (IC50) in data set [3] above 799 µM. Moreover, in data set [4], the “Affinity for HSV-1 TK (in words)” value was “display affinity” and half-maximal inhibition (IC50) required 208 µM.

On to `Nc1ccn(C2CCC(CO)C3CC32)c(=O)n1` (stereo not drawn) [Compound 2e, 4-Amino-1-[(1′S,2′S,5′R,6′R)-5′-(hydroxymethyl)bicyclo [4.1.0]hept-2′-yl]pyrimidin-2(1H)-one], for which the IC50 in data set [2], in data set [3] and in data set [4] was above 425 µM throughout. Moreover, the “Affinity for HSV-1 TK (in words)” value in data set [4] is “did not display affinity”. The “Cytotoxicity, minimum cytotoxic concentration” value in data set [1] is above 100 µM.

For the molecule `Nc1nc(O)c2ncn(COC(CO)CO)c2n1` [Ganciclovir], the “Cytotoxicity, minimum cytotoxic concentration” value in data set [1] is above 100 µM.
